Test [1] deals with IFNγ. The test is described as follows: In vivo cytokine induction, plasma cytokine levels: IFNγ (Example 12). Set-up: species or system BALB/C mice. To be noted: single intratumoral dose, values at or below LLOQ set to 0.01. How it is done: Mice were subcutaneously implanted with 3×10^5 CT26 tumor cells in the left and right flanks. […] Hydrogels were administered as suspensions in PBST buffer. K2 EDTA-preserved blood samples were collected by retro-orbital bleed at various time points following drug administration and plasma was isolated following centrifugation at 2000×g for 5 minutes at 4° C. and frozen. Plasma samples were stored at −80° C. Plasma was thawed and undiluted samples were assessed for cytokine levels using the 36-Plex Mouse ProcartaPlex™ Cytokine Panel 1A (ThermoFisher Scientific) following manufacturer's recommendations. Cytokines were measured on the Bio-Plex 200 (BioRad) following kit instructions. For sample values below or at the lower limit of quantitation (LLOQ) of the assay, a value of 0.01 pg/mL was instead used in determining mean cytokine concentrations.

Test [2] has as its system Il1a. The test is described as follows: PBMC gene expression (qPCR, 6 hours post-treatment): Il1a (Example 17). In kind it is in vivo, BALB/C mice. How it is done:
(§1) Hydrogels were administered as suspensions in PTP buffer. […] Tumors were excised, weighed and snap frozen.
(§2) For PBMC isolations, approximately 600 μl of whole blood was collected via cardiac puncture. The collected whole blood from each individual mouse was diluted with a 1:1 ratio of pre-warmed PBS supplemented with 2% Fetal Bovine Serum (FBS). Then an equal volume of Histopaque-1083 was added to a new sterile 15 mL conical tube, where the diluted whole blood was layered over the Histopaque-1083. The mixture was then centrifuged at 400 g for 30 minutes. […]
(§3) Lysates from untreated control samples and 6 hour treated samples were thawed and RNA was isolated using the RNeasy Mini Kit (QIAGEN) following manufacturer's recommendations. […] RNA concentrations were measured using a NanoDrop (ThermoFisher) and then adjusted to […] with RNase-free water. RNA quality was assessed using a NanoDrop (ThermoFisher). […] 200 ng of cDNA was used for quantitative PCR using the RT^2 SYBR Green ROX qPCR Master mix (2×) kit (QIAGEN) following manufacturer's recommendations. […]
(§4) Cycle thresholds (CT) were collected using a 384-well platform ABI-7900H real-time qPCR system (Applied Biosystems). […] 2^ΔΔCT values were calculated with the following formula: […]
(§5) For each gene, 3 technical replicates were analyzed per biological replicate. Undetermined technical replicate CT values were recorded as zero ΔCT values. […]
On the technique in general: In qPCR the cycle at which signal appears reflects the starting amount.

Test [3] has as its system Il1b. Nature of the test: PBMC gene expression (qPCR, 6 hours post-treatment): Il1b (Example 17). In kind it is in vivo, BALB/C mice. How it is done: as §1, §2, §3, §4, §5
For test [4], the system named is Ccl2. The test is described as follows: PBMC gene expression (qPCR, 6 hours post-treatment): Ccl2 (Example 17). Format: in vivo, BALB/C mice. The procedure: as §1, §2, §3, §4, §5
For test [5], the system named is Cxcl1. The test is described as follows: PBMC gene expression (qPCR, 6 hours post-treatment): Cxcl1 (Example 17). In kind it is in vivo, BALB/C mice. The procedure: as §1, §2, §3, §4, §5
The test system of test [6] is Cxcl10. The test is described as follows: PBMC gene expression (qPCR, 6 hours post-treatment): Cxcl10 (Example 17). In kind it is in vivo, BALB/C mice. How it is done:
as §1, §2, §3, §4, §5

The source of these data is US20220054477A1, “INDUCTION OF SUSTAINED LOCAL INFLAMMATION” (Ascendis Pharma Oncology Division A/S, priority 2019, published 2022).

Marks after values point to notes of the source that are not given here.

Resiquimod [Compound 4]: the “IFNγ plasma level, Mean” value was 4.04 pg/mL in test [1] (1 h post-treatment); 15.49†, ‡ pg/mL in test [1] (3 h post-treatment); 40.72†, ‡ pg/mL in test [1] (6 h post-treatment); 28.19†, ‡ pg/mL in test [1] (10 h post-treatment); 2.38 pg/mL in test [1] (24 h post-treatment). Besides, in test [2], the “Il1a Mean (2^ΔΔCT)” value was found to be 0.41. Moreover, the “Il1a Fold change (4/13i)” value in test [2] (ratio of 4 to 13i) is recorded as 1.78. For the same substance, the “Il1b Mean (2^ΔΔCT)” value in test [3] is listed as 3.71†. The “Il1b Fold change (4/13i)” value in test [3] (ratio of 4 to 13i) is 7.92. For the same substance, the “Ccl2 Mean (2^ΔΔCT)” value in test [4] is on record as 6.75. Besides, the “Ccl2 Fold change (4/13i)” value in test [4] (ratio of 4 to 13i) amounted to 2.82. Moreover, the “Cxcl1 Mean (2^ΔΔCT)” value in test [5] was 7.41. Moreover, the “Cxcl1 Fold change (4/13i)” value in test [5] (ratio of 4 to 13i) amounted to 11.54. Further, the “Cxl10 Mean (2^ΔΔCT)” value in test [6] is 45.38. For the same substance, the “Cxl10 Fold change (4/13i)” value in test [6] (ratio of 4 to 13i) was determined as 21.41.
